Data published in patent publication US20250360205A1, “NOD1 MODULATORS AND USES THEREOF” (Academia Sinica, priority 2022, published 2025).

Molecular target: T1, NOD1 (Homo sapiens, UniProt Q9Y239)
T1 construct: host or cells: HEK-Blue hNOD1 cells (HEK293-derived, with NF-κB-inducible SEAP reporter)
T1 sequence (Q9Y239 1-953): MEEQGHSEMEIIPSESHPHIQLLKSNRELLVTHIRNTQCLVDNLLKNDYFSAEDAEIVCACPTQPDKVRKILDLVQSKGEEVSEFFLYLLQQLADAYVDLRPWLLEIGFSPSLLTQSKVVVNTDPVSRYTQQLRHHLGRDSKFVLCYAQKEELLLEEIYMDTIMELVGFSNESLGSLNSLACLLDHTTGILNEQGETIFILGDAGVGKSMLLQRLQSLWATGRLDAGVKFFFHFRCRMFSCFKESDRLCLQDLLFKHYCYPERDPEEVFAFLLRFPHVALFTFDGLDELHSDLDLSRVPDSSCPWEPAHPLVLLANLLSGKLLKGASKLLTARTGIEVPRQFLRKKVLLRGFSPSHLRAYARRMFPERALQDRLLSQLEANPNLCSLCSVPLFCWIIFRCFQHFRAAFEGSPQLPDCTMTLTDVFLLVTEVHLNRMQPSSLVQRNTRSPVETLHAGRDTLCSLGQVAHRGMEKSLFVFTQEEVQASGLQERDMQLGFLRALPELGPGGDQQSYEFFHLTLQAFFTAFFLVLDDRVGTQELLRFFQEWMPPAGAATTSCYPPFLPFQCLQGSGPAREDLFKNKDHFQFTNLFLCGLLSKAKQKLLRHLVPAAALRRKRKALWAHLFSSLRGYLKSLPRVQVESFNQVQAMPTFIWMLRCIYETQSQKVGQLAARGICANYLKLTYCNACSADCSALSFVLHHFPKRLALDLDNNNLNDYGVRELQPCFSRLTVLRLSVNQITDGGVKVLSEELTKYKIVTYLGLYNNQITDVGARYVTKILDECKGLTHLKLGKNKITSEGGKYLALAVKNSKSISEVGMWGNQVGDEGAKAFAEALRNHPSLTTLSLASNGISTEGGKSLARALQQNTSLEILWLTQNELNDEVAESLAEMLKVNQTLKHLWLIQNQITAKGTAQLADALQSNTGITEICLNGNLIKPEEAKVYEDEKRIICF
Test: NOD1-induced NF-κB activation assay (SEAP reporter) in HEK-Blue hNOD1 cells
Assay type: cell-based
Details: 16 h; for NOD1 stimulation potency (NF-κB activity): 0.1 μM, FIG. 1, relative to iE-DAP, C12-iE-DAP, Tri-DAP
Description: Measurement of NOD1-induced NF-κB Activation Assay
HEK-Blue™ hNOD1 Cells (Invivogen; San Diego, CA, U.S.) were cultured in accordance with the manufacturer's instructions. HEK-Blue™ hNOD1 Cells was assayed for NF-κB transcriptional activity changes upon incubation (3.6×10^5 cells/mL) with iE-DAP, C12-iE-DAP, Tri-DAP (Invivogen, San Diego, CA, U.S.) and other NOD1 agonistic compounds (0.1-10 μM) for 16 h. Secreted embryonic alkaline phosphatase (SEAP) activity was determined in the supernatant in accordance with the manufacturer's instructions. An amount of 20 μL of SEAP-inducer compound or negative control was added to 180 μL of cells in HEK-Blue™ detection medium and incubated at 37° C. for 16 h. Absorbance was measured on a SpectraMax M5 (Molecular Devices, Sunnyvale, CA, U.S.) at 640 nm.

Compound | fold increase of NF-κB activity (1 μM, FIGS. 2 and 3) | NOD1 stimulation potency (NF-κB activity)
C[C@H](N)C(=O)N[C@H](CCC(=O)N[C@H](CO)CCC[C@@H](N)C(=O)O)C(=O)O [Compound 6] | 20 fold | 
COc1ccc(CC(=O)NC(C)C(=O)NC(CCC(=O)NC(CO)CCCC(N)C(=O)O)C(=O)O)cc1 (stereo not drawn) [Compound 14f] |  | decreased dramatically
CC(NC(=O)Cc1ccc(-c2ccccc2)cc1)C(=O)NC(CCC(=O)NC(CO)CCCC(N)C(=O)O)C(=O)O (stereo not drawn) [Compound 14h] |  | decreased dramatically
